System: patients after acute myocardial infarction
Assay: Life quality, Seattle Angina Questionnaire (SAQ), same clinical trial
Type: in vivo, human
Conditions: 6 months after treatment
Excerpt: 3508 patients who were in accordance with the diagnostic standards of AMI for 28 days to 2 years and differentiated as Qi deficiency and blood stagnation syndrome by TCM were studied. 0.5 g Chinese medicine composition prepared by the method of EXAMPLE 1 (Coded as QSYQ) was administrated half an hour after meal, 3 times per day.
There were 19 questions in the Seattle angina questionnaire (SAQ), including 5 parts: physical limitation (PL), anginal stability (AS), anginal frequency (AF), treatment satisfaction (TS) and disease perception (DP). After being given necessary explanation by doctors, the questions were answered independently by patients.
They included the overall survival time, angina pectoris score, TCM symptom score and life quality score, where angina pectoris score, TCM symptom score and life quality score were evaluated at randomization, in 1st, 3rd, 6th, 9th, 12th month after treatment and 18th month after follow-up.
All evaluation results of SAQ were described during the period of observation, and Wilcoxon rank sum test was used for inter-group comparison.
The evaluation results in the SAQ were depicted in different observations, and inter-group comparison was tested by Wilcoxon Rank-sum test.

SMILES: CC(=O)Oc1ccccc1C(=O)O [Control group, aspirine]
- SAQ Question 1-3: Not limited, number of patients (FAS): 1358
- SAQ Question 1-3: Not limited, percent of patients (FAS): (77.87%)
- SAQ Question 1-3: Other reasons, number of patients (FAS): 11
- SAQ Question 1-3: Other reasons, percent of patients (FAS): (0.63%)
- SAQ Question 1-3: Severely limited, number of patients (FAS): 4
- SAQ Question 1-3: Severely limited, percent of patients (FAS): (0.23%)
- SAQ Question 1-3: Slightly limited, number of patients (FAS): 265
- SAQ Question 1-3: Slightly limited, percent of patients (FAS): (15.19%)
- SAQ Question 1-4: Mildly limited, number of patients (FAS): 314
- SAQ Question 1-4: Mildly limited, percent of patients (FAS): (18.00%)
- SAQ Question 1-4: Moderately limited, number of patients (FAS): 97
- SAQ Question 1-4: Moderately limited, percent of patients (FAS): (5.56%)
- SAQ Question 1-4: Not limited, number of patients (FAS): 731
- SAQ Question 1-4: Not limited, percent of patients (FAS): (41.92%)
- SAQ Question 1-4: Other reasons, number of patients (FAS): 13
- SAQ Question 1-4: Other reasons, percent of patients (FAS): (0.75%)
- SAQ Question 1-4: Severely limited, number of patients (FAS): 29
- SAQ Question 1-4: Severely limited, percent of patients (FAS): (1.66%)
- SAQ Question 1-4: Slightly limited, number of patients (FAS): 560
- SAQ Question 1-4: Slightly limited, percent of patients (FAS): (32.11%)
- SAQ Question 1-5: Mildly limited, number of patients (FAS): 292
- SAQ Question 1-5: Mildly limited, percent of patients (FAS): (16.75%)
- SAQ Question 1-5: Moderately limited, number of patients (FAS): 137
- SAQ Question 1-5: Moderately limited, percent of patients (FAS): (7.86%)
- SAQ Question 1-5: Not limited, number of patients (FAS): 755
- SAQ Question 1-5: Not limited, percent of patients (FAS): (43.32%)
- SAQ Question 1-5: Other reasons, number of patients (FAS): 13
- SAQ Question 1-5: Other reasons, percent of patients (FAS): (0.75%)
- SAQ Question 1-5: Severely limited, number of patients (FAS): 20
- SAQ Question 1-5: Severely limited, percent of patients (FAS): (1.15%)
- SAQ Question 1-5: Slightly limited, number of patients (FAS): 526
- SAQ Question 1-5: Slightly limited, percent of patients (FAS): (30.18%)
- SAQ Question 1-9: Mildly limited, % of cases (FAS): (19.93%)
- SAQ Question 1-9: Mildly limited, cases (FAS): 341
- SAQ Question 1-9: Moderately limited, % of cases (FAS): (20.86%)
- SAQ Question 1-9: Moderately limited, cases (FAS): 357
- SAQ Question 1-9: Not limited, % of cases (FAS): (3.39%)
- SAQ Question 1-9: Not limited, cases (FAS): 58
- SAQ Question 1-9: Other limited, % of cases (FAS): (6.20%)
- SAQ Question 1-9: Other limited, cases (FAS): 106
- SAQ Question 1-9: Severely limited, % of cases (FAS): (35.42%)
- SAQ Question 1-9: Severely limited, cases (FAS): 606
- SAQ Question 1-9: Slightly limited, % of cases (FAS): (14.20%)
- SAQ Question 1-9: Slightly limited, cases (FAS): 243
- SAQ 2nd question: Clearly increased, % of cases (PP): (0.21%)
- SAQ 2nd question: Clearly increased, cases (PP): 3
- SAQ 2nd question: Clearly reduced, % of cases (PP): (24.52%)
- SAQ 2nd question: Clearly reduced, cases (PP): 355
- SAQ 2nd question: Same, % of cases (PP): (36.46%)
- SAQ 2nd question: Same, cases (PP): 528
- SAQ 2nd question: Slightly increased, % of cases (PP): (2.76%)
- SAQ 2nd question: Slightly increased, cases (PP): 40
- SAQ 2nd question: Slightly reduced, % of cases (PP): (36.05%)
- SAQ 2nd question: Slightly reduced, cases (PP): 522
- SAQ 3rd question: 1-2 times per week, % of cases (PP): (36.05%)
- SAQ 3rd question: 1-2 times per week, cases (PP): 522
- SAQ 3rd question: 1-3 times per day, % of cases (PP): (2.76%)
- SAQ 3rd question: 1-3 times per day, cases (PP): 40
- SAQ 3rd question: <1 time per week, % of cases (PP): (24.52%)
- SAQ 3rd question: <1 time per week, cases (PP): 355
- SAQ 3rd question: No onset, % of cases (PP): (0.00%)
- SAQ 3rd question: No onset, cases (PP): 0
- SAQ 3rd question: ≧3 times per week, % of cases (PP): (36.46%)
- SAQ 3rd question: ≧3 times per week, cases (PP): 528
- SAQ 3rd question: ≧4 times per day, % of cases (PP): (0.21%)
- SAQ 3rd question: ≧4 times per day, cases (PP): 3
- SAQ Question 1-3: Mildly limited, number of patients (PP): 65
- SAQ Question 1-3: Mildly limited, percent of patients (PP): (4.48%)
- SAQ Question 1-3: Moderately limited, number of patients (PP): 14
- SAQ Question 1-3: Moderately limited, percent of patients (PP): (0.97%)
- SAQ Question 1-3: Not limited, number of patients (PP): 1131
- SAQ Question 1-3: Not limited, percent of patients (PP): (78.00%)
- SAQ Question 1-3: Other reasons, number of patients (PP): 9
- SAQ Question 1-3: Other reasons, percent of patients (PP): (0.62%)
- SAQ Question 1-3: Severely limited, number of patients (PP): 4
- SAQ Question 1-3: Severely limited, percent of patients (PP): (0.28%)
- SAQ Question 1-3: Slightly limited, number of patients (PP): 227
